According to ChEMBL document CHEMBL5154929, “Optimization of the Natural Product Calothrixin A to Discover Novel Dual Topoisomerase I and II Inhibitors with Improved Anticancer Activity” (J Med Chem, 2022):
Activity calls are given as the source filed them. The rule behind the calls is not given here.

What was measured:
[1] = Tmax in Kunming mouse plasma at 10 mg/kg, iv administered as single dose measured after 5 to 360 mins by HPLC analysis; assay type: ADME, organism-based; settings: time 5-360 min
HCT-116 [2] = test: Antiproliferative activity against doxorubicin sensitive human HCT-116 cells measured after 72 hrs by MTT assay; assay type: functional, cell-based; settings: HCT-116, 72 h
[3] = target: DNA topoisomerase 2-alpha (Homo sapiens) (UniProt P11388); test: Inhibition of human DNA topoisomerase II-alpha relaxation activity at 100 uM incubated for 30 mins by chemiDoc system
DNA topoisomerase 2-alpha (Homo sapiens), sequence (P11388 whole entry): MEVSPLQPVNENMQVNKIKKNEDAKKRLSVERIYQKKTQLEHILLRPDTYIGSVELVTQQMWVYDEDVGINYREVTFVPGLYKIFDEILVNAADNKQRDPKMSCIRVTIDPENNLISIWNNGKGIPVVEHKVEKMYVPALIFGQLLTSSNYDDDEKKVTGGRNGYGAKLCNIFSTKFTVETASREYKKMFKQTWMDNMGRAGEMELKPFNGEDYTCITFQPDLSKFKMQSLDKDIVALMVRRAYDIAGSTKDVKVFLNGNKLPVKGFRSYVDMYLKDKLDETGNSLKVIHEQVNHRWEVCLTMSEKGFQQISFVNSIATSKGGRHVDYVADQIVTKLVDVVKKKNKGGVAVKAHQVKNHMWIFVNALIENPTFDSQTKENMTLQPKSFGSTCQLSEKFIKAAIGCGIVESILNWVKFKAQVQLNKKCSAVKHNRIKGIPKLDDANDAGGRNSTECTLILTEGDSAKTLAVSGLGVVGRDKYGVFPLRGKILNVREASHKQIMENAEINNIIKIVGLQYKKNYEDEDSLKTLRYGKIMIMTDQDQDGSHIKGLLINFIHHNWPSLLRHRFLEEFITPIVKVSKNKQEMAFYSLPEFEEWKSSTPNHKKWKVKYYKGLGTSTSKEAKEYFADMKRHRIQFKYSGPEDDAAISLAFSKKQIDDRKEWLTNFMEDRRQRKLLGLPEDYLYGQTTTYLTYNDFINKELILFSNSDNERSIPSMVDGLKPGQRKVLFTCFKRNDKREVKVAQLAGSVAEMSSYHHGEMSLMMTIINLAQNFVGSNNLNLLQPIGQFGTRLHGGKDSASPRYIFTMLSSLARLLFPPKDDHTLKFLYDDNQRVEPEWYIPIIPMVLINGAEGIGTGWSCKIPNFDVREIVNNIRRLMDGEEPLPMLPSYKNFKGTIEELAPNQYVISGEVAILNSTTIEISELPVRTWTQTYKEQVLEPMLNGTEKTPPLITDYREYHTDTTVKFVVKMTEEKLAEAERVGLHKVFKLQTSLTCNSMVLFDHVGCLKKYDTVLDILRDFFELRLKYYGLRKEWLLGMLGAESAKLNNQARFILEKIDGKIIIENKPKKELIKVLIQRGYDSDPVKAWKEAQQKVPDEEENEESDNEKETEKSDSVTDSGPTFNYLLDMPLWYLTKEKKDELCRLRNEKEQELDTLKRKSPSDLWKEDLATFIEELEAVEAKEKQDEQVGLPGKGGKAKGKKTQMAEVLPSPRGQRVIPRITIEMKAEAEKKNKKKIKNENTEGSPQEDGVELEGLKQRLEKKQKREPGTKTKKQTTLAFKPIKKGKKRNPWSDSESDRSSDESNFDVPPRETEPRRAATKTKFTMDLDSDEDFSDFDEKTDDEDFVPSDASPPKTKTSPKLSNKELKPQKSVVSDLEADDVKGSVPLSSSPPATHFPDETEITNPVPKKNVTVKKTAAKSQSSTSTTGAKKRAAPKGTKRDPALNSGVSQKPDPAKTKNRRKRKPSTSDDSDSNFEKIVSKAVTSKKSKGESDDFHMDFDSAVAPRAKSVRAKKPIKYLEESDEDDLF

[4] = Aqueous solubility of the compound in saline equilibrating for 24 hrs by HPLC analysis; assay type: physicochemical
HCT-116 [5] = test: Antiproliferative activity against doxorubicin resistant human HCT-116 cells measured after 72 hrs by MTT assay; assay type: functional, cell-based; settings: HCT-116, 72 h
A-375 [6] = test: Induction of apoptosis in human A-375 cells at 80 nM measured after 8 hrs by Annexin V-FITC and DAPI staining based flow cytometric analysis; assay type: functional
A-375 [7] = test: Induction of apoptosis in human A-375 cells at 80 nM measured after 16 hrs by Annexin V-FITC and DAPI staining based flow cytometric analysis; assay type: functional
Calf thymus DNA [8] = test: Binding affinity to calf thymus DNA assessed as intercalation by measuring hypochromic shift at 389 nm by […]; assay type: nucleic-acid assay; settings: Bos taurus
A-375 [9] = test: Induction of cell cycle arrest in human A-375 cells assessed as accumulation of cells at S phase at 40 nM incubated for 24 hrs by PI based flow cytometric analysis (RVB = 26.73%); assay type: functional
A-375 [10] = test: Induction of apoptosis in human A-375 cells assessed as increase in expression level of C-caspase-9 measured after 24 hrs by Western blotting analysis; assay type: functional, cell-based; settings: dose 40-120 nM, DDE = dose-dependent effect
A-375 [11] = test: Induction of apoptosis in human A-375 cells assessed as increase in expression level of Bad measured after 24 hrs by Western blotting analysis; assay type: functional, cell-based; settings: dose 40-120 nM, DDE = dose-dependent effect
A-375 [12] = test: In vivo antitumor activity against human A-375 cells xenografted in BALB/c nude mouse assessed as shrinkage of tumor tissue treated after 7 days of tumor implantation on right flank subcutaneously at 10 to 20 mg/kg, iv administered once per 2 days for 14 days measured once every two days; assay type: functional, organism-based; settings: dose 10-20 mg/kg, time 14.0 day
A-375 [13] = test: Antimigratory activity in human A-375 cells assessed as reduction in cell migration incubated for 24 hrs by wound healing assay; assay type: functional, cell-based; settings: dose 10-40 nM, DDE = dose-dependent effect
A-375 [14] = test: Induction of apoptosis in human A-375 cells at 80 nM measured after 24 hrs by Annexin V-FITC and DAPI staining based flow cytometric analysis; assay type: functional
A-375 [15] = test: Induction of apoptosis in human A-375 cells at 120 nM measured after 24 hrs by Annexin V-FITC and DAPI staining based flow cytometric analysis; assay type: functional
[16] = In vivo acute toxicity in Balb/C mouse assessed as pathological damage in spleen at 50 mg/kg, iv administered once per 2 days for 7 days measured 24 hrs after last dose by H and E staining method; assay type: organism-based; settings: 168 h, time 7 day
[17] = target: T1, DNA topoisomerase 1 (Homo sapiens) (UniProt P11387); test: Poison activity at human topoisomerase I assessed as stabilization of enzyme-DNA cleavage complex by measuring nicked DNA formation at 100 uM after 60 mins by agarose gel electrophoresis method
T1 sequence (whole entry): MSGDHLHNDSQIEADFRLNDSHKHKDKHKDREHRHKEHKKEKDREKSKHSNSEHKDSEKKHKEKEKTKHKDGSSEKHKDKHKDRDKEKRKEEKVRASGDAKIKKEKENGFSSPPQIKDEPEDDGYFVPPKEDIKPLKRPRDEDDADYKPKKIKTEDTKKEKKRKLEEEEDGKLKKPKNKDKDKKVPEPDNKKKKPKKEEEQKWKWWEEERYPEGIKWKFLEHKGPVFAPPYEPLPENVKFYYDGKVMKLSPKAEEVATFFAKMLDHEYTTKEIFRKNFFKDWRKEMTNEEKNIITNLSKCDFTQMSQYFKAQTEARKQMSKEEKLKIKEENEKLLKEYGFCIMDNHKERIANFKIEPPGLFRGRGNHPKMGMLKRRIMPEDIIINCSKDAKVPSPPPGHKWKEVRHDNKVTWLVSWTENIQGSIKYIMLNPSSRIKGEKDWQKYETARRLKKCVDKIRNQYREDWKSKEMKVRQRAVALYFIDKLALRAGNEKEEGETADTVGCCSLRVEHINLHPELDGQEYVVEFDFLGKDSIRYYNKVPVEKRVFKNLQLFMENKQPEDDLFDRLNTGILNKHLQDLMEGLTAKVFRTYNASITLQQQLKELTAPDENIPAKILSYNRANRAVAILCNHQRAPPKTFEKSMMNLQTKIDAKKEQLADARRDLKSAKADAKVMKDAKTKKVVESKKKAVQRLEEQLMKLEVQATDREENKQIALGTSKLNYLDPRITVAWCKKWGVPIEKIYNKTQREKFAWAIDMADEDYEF

[18] = Cmax in Kunming mouse plasma at 10 mg/kg, iv administered as single dose measured after 5 to 360 mins by HPLC analysis; assay type: ADME, organism-based; set-up: dose 10 mg/kg, time upper 360 min, time lower 5 min, route iv
A-375 [19] = test: In vivo induction of apoptosis in human A-375 cells xenografted in BALB/c nude mouse assessed as […] treated after 7 days of tumor implantation on right flank subcutaneously at 10 to 20 mg/kg, iv administered once per 2 days for 14 days by measuring TUNEL positive cells under a light microscope; assay type: functional, organism-based; settings: dose 10-20 mg/kg, time 14.0 day
A-375 [20] = test: Cytotoxicity against human A-375 cells expressing high level of topoisomerase I/II measured after 72 hrs by MTT assay; assay type: functional, cell-based; settings: A-375, 72 h
[21] = In vivo acute toxicity in Balb/C mouse assessed as tolerability at 50 mg/kg, iv administered once per 2 days for 7 days measured every other day; assay type: organism-based; settings: 168 h, time 7 day
SH-SY5Y = test: Cytotoxicity against human SH-SY5Y cells expressing low level of topoisomerase I/II measured after 72 hrs by MTT assay; assay type: functional, cell-based
[22] = Half life in Kunming mouse plasma at 10 mg/kg, iv administered as single dose measured after 5 to 360 mins by HPLC analysis; assay type: ADME, organism-based; settings: time 5-360 min
A549 = test: Cytotoxicity against human A549 cells expressing high level of topoisomerase I/II measured after 72 hrs by MTT assay; assay type: functional, cell-based; settings: A549, 72 h
[23] = Metabolic stability in mouse plasma upto 5 hrs by HPLC-UV analysis; assay type: ADME, cell-free
A-375 [24] = test: Induction of cell cycle arrest in human A-375 cells assessed as accumulation of cells at G2 phase at 80 nM incubated for 24 hrs by PI based flow cytometric analysis (RVB = 20.34%); assay type: functional
A-375 [25] = test: Induction of cell cycle arrest in human A-375 cells assessed as accumulation of cells at G1 phase at 80 nM incubated for 24 hrs by PI based flow cytometric analysis (RVB = 52.94%); assay type: functional
HCT-116 [26] = test: Cytotoxicity against human HCT-116 cells expressing high level of topoisomerase I/II measured after 72 hrs by MTT assay; assay type: functional, cell-based; settings: HCT-116, 72 h
Calf thymus DNA [27] = test: Binding affinity to calf thymus DNA assessed as intercalation by measuring hypochromic shift at 432 nm by […]; assay type: nucleic-acid assay; settings: Bos taurus
[28] = In vivo acute toxicity in Balb/C mouse assessed as mortality at 10 to 50 mg/kg, iv administered once per 2 days for 7 days; assay type: organism-based; settings: 168 h, dose 10-50 mg/kg, time 7 day

With `O=C1c2c[n+]([O-])c3ccccc3c2C(=O)c2c1c1ccccc1n2Cc1cn([C@@H]2C[C@H](O)[C@@H](CO)O2)nn1` as the compound, how does the Tmax [1] read?
The Tmax was 5 min.

What about the IC50 (HCT-116 [2]) of the same compound?
The IC50 was 50 nM.

What about the inhibition [3] of the same compound?
The inhibition was “Active”.

And the solubility at 24 h [4]?
The solubility at 24 h was > 5000 µg/mL.

What about the IC50 (HCT-116 [5]) of the same compound?
The IC50 was 70 nM.

What about the Activity (A-375 [6]) of the same compound?
The Activity was 7.14%.

What about the Activity (A-375 [7]) of the same compound?
The Activity was 23.78%.

And the Activity (Calf thymus DNA [8])?
The Activity was 29%.

What about the Activity (A-375 [9]) of the same compound?
Its Activity is 43.2%.

What about the Activity (A-375 [10]) of the same compound?
Its Activity is “Dde”.

What about the Activity (A-375 [11]) of the same compound?
Its Activity is “Dde”.

And the Activity (A-375 [12])?
Its Activity is “Active”.

And the Activity (A-375 [13])?
Its Activity is “Dde”.

And the Activity (A-375 [14])?
Its Activity is 36.21%.

What about the Activity (A-375 [15]) of the same compound?
Its Activity is 55.94%.

What about the Activity [16] of the same compound?
Its Activity is “Non-Toxic”.

What about the Activity [17] of the same compound?
The Activity was “Active”.

And the Cmax [18]?
The Cmax was 27000 ng/mL.

And the Activity (A-375 [19])?
The Activity was “Active”.

And the IC50 (A-375 [20])?
The IC50 was 20 nM.

And the Activity [21]?
Its Activity is “Non-Toxic”.

What about the IC50 (SH-SY5Y) of the same compound?
The IC50 was 150 nM.

And the half-life [22]?
The half-life was 2.52 h.

What about the IC50 (A549) of the same compound?
Its IC50 is 120 nM.

And the Stability [23]?
Its Stability is “Stable”.

What about the Activity (A-375 [24]) of the same compound?
Its Activity is 6.88%.

And the Activity (A-375 [25])?
The Activity was 34.99%.

What about the IC50 (HCT-116 [26]) of the same compound?
The IC50 was 50 nM.

And the Activity (Calf thymus DNA [27])?
The Activity was 32%.

And the Activity [28]?
Its Activity is “Non-Toxic”.
